Measured values taken from paper PMC6152717, “Novel Tacrine-Scutellarin Hybrids as Multipotent Anti-Alzheimer’s Agents: Design, Synthesis and Biological Evaluation” (Molecules : A Journal of Synthetic Chemistry and Natural …, 2017).
Marks after values point to notes of the source that are not given here.

Columns and labels:
DPPH antioxidant assay = details: mean of at least three experiments; 30 min, methanol
Source text: The free phenolic group of 1 is presumably able to easily undergo keto-enol tautomerism which has previously been postulated to be responsible for radical scavenging. Within the family of 6-Cl-THA-scutellarin hybrids, all the phenolic hydroxyls of scutellarin moiety are hindered by methyl containing methoxy groups and thus unable to exert such an effect under in vitro conditions. However, the antioxidant activity of K1383–K1389 in vivo may occur due to metabolism of the compound whereby demethylation of one or more methoxy groups can take place. This is known to be the case of 7-methoxytacrine and its major metabolite found in vivo, 7-hydroxytacrine.
DPPH, methanol, and Trolox (as reference standard) were purchased from Sigma-Aldrich. Polystyrene Nunc 96-well microplates with flat bottom shape (Thermo Fisher Scientific) were used for measuring purposes. All of the assays were carried out in methanol. DPPH solution was prepared at 0.2 mM concentration. […] The reaction time constituted 30 min. The antioxidant activity was determined by measuring the […] in absorbance at 517 nm at laboratory temperature using Synergy 2 multimode microplate reader. Each concentration was tested in triplicate. The software GraphPad Prism version 5 for Windows was used for statistical data evaluation.

HepG2 cells = test: Hepatotoxicity on HepG2 cells, MTT assay; type: cell-based; details: for IC50: Homo sapiens, HepG2, MTT, 24 h incubation, mean ± SEM of three independent experiments; for cytotoxicity compared to reference 6-Cl-THA: HepG2, 24 h incubation
Procedure: Hepatotoxicity of tested compounds was evaluated using the HepG2 cell line originally from human liver hepatocellular carcinoma (ATCC, Manassas, VA, USA). These cells were plated at density 17 × 10^3 per well in a 96-well plate in Dulbecco’s Modified Eagle’s Medium (DMEM; Gibco, Langley, OK, USA) with 10% FBS (Gibco) and were left to attach overnight. […] Stock solutons of tested compounds were prepared in DMSO (Sigma Aldrich, Prague, Czech Republic) and then diluted in DMEM medium. […] Subsequently, the medium was aspirated and 100 μL MTT solution (0.5 mg/mL) in serum-free DMEM medium was added to each well. Cells were then incubated for 1 h. The medium was then discarded and purple crystals of MTT formazan were dissolved in 100 μL DMSO under shaking. The absorbance was measured with a microplate reader (BioTek) at a minimum wavelength of 570 nm. The IC50 values were calculated using four parametric nonlinear regression with statistic software GraphPad Prism. Data were obtained from three independent experiments performed in triplicates.

[1] = PAMPA-BBB permeation assay; type: in vitro ADME; details: for Prediction of BBB penetration: PAMPA-BBB class; for Papp at 100 μM / BBB crossing prediction: PAMPA-BBB; for Papp at 100 μM: PBS pH 7.4, 100 μM donor, mean ± SD of three independent experiments, read-out: Pe; for BBB crossing prediction: passive diffusion model
Procedure: The parallel artificial membrane permeation assay (PAMPA) has been used based on reported protocol. The filter membrane of the donor plate was coated with PBL (Polar Brain Lipid, Avanti, Alabaster, AL, USA) in dodecane (4 μL of 20 mg/mL PBL in dodecane) and the acceptor well was filled with 300 μL of PBS pH 7.4 buffer (VD). Tested compounds were dissolved first in DMSO and then diluted with PBS pH 7.4 to reach the final concentration 100 μM in the donor well. […] 300 μL of the donor solution was added to the donor wells (VA) and the donor filter plate was carefully put on the acceptor plate so that coated membrane was “in touch” with both donor solution and acceptor buffer. Test compound diffused from the donor well through the lipid membrane (Area = 0.28 cm^2) to the acceptor well. The concentration of the drug in both donor and the acceptor wells was assessed after 3, 4, 5 and 6 h of incubation in quadruplicate using the Synergy HT UV plate reader at the maximum absorption wavelength of each compound. Concentration of the compounds was calculated from the standard curve and expressed as the permeability (Pe) according to Equation (2): (2) logPe=log {C×−ln(1−[drug]acceptor/[drug]equilibrium)} where C = (VD×VA/(VD+VA)×Area×time)

[2] = molecular target: T1, human acetylcholinesterase (hAChE) (Homo sapiens, UniProt P22303); test: biochemical; details: AChE from human erythrocytes; mean of three independent measurements ± SEM
T1 construct: Human erythrocyte hemolyzate, prepared from blood samples, was applied as a source of AChE (EC 3.1.1.7); from tissue; host or cells: human erythrocytes (hemolyzate from blood of healthy volunteers)
Procedure: (§1) Human erythrocyte hemolyzate, prepared from blood samples, was applied as a source of AChE (EC 3.1.1.7). […] The erythrocytes were washed three times with phosphate buffer (PB; 0.1 M, pH 7.4) and then hemolyzed in PB (0.01 M, Ph 7.4) in ration 1:10 (w/w), frozen and kept under −80 °C before use. Human plasma BChE (EC 3.1.1.8), 5,5′-dithiobis(2-nitrobenzoic acid) (Ellman’s reagent, DTNB), phosphate buffer solution (PBS, pH 7.4), acetylthiocholine iodide (ATCh), and butyrylthiocholine (BTCh) were purchased from Sigma-Aldrich. Polystyrene Nunc 96-well microplates with flat bottom shape (ThermoFisher Scientific, Bremen, Germany) were used for the measuring purposes. All of the assays were carried out in 0.1 M KH2PO4/K2HPO4 buffer, pH 7.4. […] The assay medium (100 μL) consisted of 40 μL of 0.1 M PBS (pH = 7.4), 20 μL of 0.01 M DTNB, 10 μL of cholinesterase, 10 µL of tested compound and 20 μL of 0.01 M substrate (ATCh or BTCh iodide solution). Assayed solutions of target compounds (10 μL, 10^−^3–10^−^9 M) were preincubated with enzyme for 5 min. The reaction was initiated by addition of 20 μL of substrate. […] Each concentration was assayed in triplicate. Percentage of inhibition (I) was calculated from the measured data as follows Equation (1): (1) I=(1−ΔAi/ΔA0)×100 [%]
(§2) ΔAi indicates absorbance change provided by cholinesterase exposed to tested compound. ΔA0 indicates absorbance change caused by intact cholinesterase, where phosphate bufffer was applied in the same was as the anticholinesterase compound. […] The IC50 values are expressed as a mean ± SEM.

[3] = molecular target: T2, human butyrylcholinesterase (hBChE) (Homo sapiens, UniProt P06276); test: biochemical; details: BChE from human plasma; mean of three independent measurements ± SEM
T2 construct: Human plasma BChE (EC 3.1.1.8); purchased Sigma-Aldrich; host or cells: human plasma
Source text: It is well established that the activity of AChE decreases during the course of AD, while that of BChE increases. Several reports indicate the ability of BChE to compensate the lack of AChE thus continuing in regulation of cholinergic transmission. Therefore, the agents with affinity to both cholinesterases could play a more profound role in the AD therapy.
as §1, §2

[4] = test system: Electric eel AChE (EeAChE); details: cited from earlier work
[5] = test system: BChE from equine serum (eqBChE); details: read-out: BChE IC50 ± SEM; cited from earlier work
[6] = printed in DPPH EC50 column; cited from earlier work
[7] = test system: AChE from human erythrocytes (hAChE); details: read-out: AChE IC50 ± SEM; cited from earlier work
hAChE = molecular target: T3, hAChE (Homo sapiens, UniProt P22303); test: Kinetic study of AChE inhibition (Lineweaver-Burk, nonlinear regression); type: biochemical
T3 construct: Human erythrocyte hemolyzate, prepared from blood samples, was applied as a source of AChE (EC 3.1.1.7); from tissue; host or cells: human erythrocytes (hemolyzate from blood of healthy volunteers)
Procedure: To determine the interaction of K1383 with hAChE, a kinetic study was carried out. Enzyme rate curves were obtained at several substrate concentrations of the inhibitor.
Inhibitors bind reversibly to both free AChE and AChE-substrate complex with equal affinity (Ki = Ki′) thus affecting the binding of substrate in the active site of enzyme and interacting with its allosteric peripheral anionic site (PAS). Interaction in this site causes conformational changes of the enzyme, including its active site. Km remained unchanged, while Vmax was reduced at higher concentration of K1383.
The kinetic study of AChE inhibition was performed using Ellman’s method. […] The type of inhibition and corresponding inhibition constant (Ki and Ki′) were determined by the nonlinear regression analysis of the substrate velocity curves at different concentrations of tested compounds. Results for each type model of inhibition (competitive, uncompetitive, mixed and mixed-non-competitive) were compared with sum-of-squares F-test. Lineweaver-Burk (double-reciprocal) plot, used for visualization of the enzyme-inhibitor interactions, was calculated using weighted least-squares regression. All calculations were performed using the GraphPad Prism software.
Figure 2 Steady-state inhibition of AChE hydrolysis of substrate acetylthiocholine (ATCh) by compound K1383 at different concentrations. […]

[8] = test system: AChE isolated from rat cortex homogenate; details: cited from earlier work
BChE from rat serum = details: read-out: BChE IC50 ± SEM; cited from earlier work

T2 sequence (P06276 29-602): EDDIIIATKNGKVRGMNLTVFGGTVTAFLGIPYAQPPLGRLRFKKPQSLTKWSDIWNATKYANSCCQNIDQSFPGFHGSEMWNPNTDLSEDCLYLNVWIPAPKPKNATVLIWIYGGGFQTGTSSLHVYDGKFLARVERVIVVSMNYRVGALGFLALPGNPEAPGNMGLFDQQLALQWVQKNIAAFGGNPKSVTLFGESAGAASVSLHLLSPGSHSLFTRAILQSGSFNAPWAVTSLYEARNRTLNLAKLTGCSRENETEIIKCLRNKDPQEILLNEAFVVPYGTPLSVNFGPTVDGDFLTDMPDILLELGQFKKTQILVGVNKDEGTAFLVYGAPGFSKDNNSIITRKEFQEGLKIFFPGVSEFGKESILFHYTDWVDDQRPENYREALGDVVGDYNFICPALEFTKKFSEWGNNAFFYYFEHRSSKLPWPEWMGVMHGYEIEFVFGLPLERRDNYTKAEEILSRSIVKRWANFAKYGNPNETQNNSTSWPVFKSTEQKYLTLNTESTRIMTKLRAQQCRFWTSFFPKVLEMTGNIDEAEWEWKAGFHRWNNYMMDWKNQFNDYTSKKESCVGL
T1 sequence (P22303 32-617 isoform P22303-2 limits assumed): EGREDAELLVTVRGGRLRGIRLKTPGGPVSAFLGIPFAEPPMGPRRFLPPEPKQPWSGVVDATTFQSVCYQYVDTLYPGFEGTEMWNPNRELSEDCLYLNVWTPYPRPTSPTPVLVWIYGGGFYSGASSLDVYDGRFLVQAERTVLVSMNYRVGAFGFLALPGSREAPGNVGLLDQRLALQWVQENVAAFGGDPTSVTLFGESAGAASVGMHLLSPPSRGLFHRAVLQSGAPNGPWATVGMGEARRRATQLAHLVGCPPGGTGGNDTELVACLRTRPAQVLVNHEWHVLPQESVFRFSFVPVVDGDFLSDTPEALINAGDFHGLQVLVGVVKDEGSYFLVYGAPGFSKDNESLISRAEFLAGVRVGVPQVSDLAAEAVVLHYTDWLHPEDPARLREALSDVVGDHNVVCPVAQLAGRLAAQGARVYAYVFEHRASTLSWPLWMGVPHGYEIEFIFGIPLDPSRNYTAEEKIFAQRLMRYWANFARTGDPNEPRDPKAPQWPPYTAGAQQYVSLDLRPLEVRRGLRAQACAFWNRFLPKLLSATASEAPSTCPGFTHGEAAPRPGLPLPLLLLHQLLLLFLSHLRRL
T3 sequence (P22303 32-617 isoform P22303-2 limits assumed): as above

SMILES	EC50 (DPPH antioxidant assay) [µM]	IC50 (HepG2 cells) [µM]	Prediction of BBB penetration [1]	Papp at 100 μM [1] [×10⁻⁶ cm/s]	IC50 [2] [nM]	IC50 [3] [nM]	other results
Nc1c2c(nc3cc(Cl)ccc13)CCCC2 [Compound 6-Cl-THA, 6-Chlorotacrine, reference compound]	> 100	7.13 ± 0.11	CNS+ (high BBB permeation predicted, Pe × 10^−6 cm/s > 4.0)	5 ± 0.45	–	–	–
Cc1c(C)c2c(c(C)c1O)CCC(C)(C(=O)O)O2 (stereo not drawn) [trolox, Trolox, reference compound]	16.2 ± 0.42	–	–	–	–	–	–
COc1cc2oc(-c3ccc(NCCCCNc4c5c(nc6cc(Cl)ccc46)CCCC5)cc3)cc(=O)c2c(OC)c1OC [Compound K1385]	> 500	3.29 ± 0.82	CNS± (BBB permeation uncertain, Pe × 10^−6 cm/s from 4.0 to 2.0)	2.6 ± 0.55	5.15 ± 0.18	8690 ± 40	–
COc1cc2oc(-c3ccc(NCCCCCCNc4c5c(nc6cc(Cl)ccc46)CCCC5)cc3)cc(=O)c2c(OC)c1OC [Compound K1387]	> 500	7.76 ± 1.47	CNS± (BBB permeation uncertain, Pe × 10^−6 cm/s from 4.0 to 2.0)	3.31 ± 0.38	31 ± 1.5	6460 ± 300	–
COc1cc2oc(-c3cccc(OCC(=O)NCCCCCCNc4c5c(nc6cc(Cl)ccc46)CCCC5)c3)cc(=O)c2c(OC)c1OC [Compound 2]	–	–	–	–	–	–	IC50 ([4]; Electric eel AChE activity, read-out: AChE IC50 ± SEM (converted)): 47.2 nM; SI (BChE IC50/AChE IC50) ([4]; electric eel AChE vs equine serum BChE): 20.5; IC50 [5]: 968.9 ± 8.26 nM; ORAC-FL antioxidant power [6]: 0.47 ± 0.03 ^a µM of Trolox/µM of tested compound; IC50 [7]: 32.5 ± 0.25 nM
COc1cc2oc(-c3ccc(NCCCCCCCNc4c5c(nc6cc(Cl)ccc46)CCCC5)cc3)cc(=O)c2c(OC)c1OC [Compound K1388]	> 500	> 32	CNS+ (high BBB permeation predicted, Pe × 10^−6 cm/s > 4.0)	4.92 ± 0.02	24.1 ± 0.9	2810 ± 110	cytotoxicity compared to reference 6-Cl-THA (HepG2 cells): slightly suppressed cytotoxicity; BBB crossing prediction [1]: potential to cross the BBB
COc1cc2oc(-c3ccc(NCCCCCNc4c5c(nc6cc(Cl)ccc46)CCCC5)cc3)cc(=O)c2c(OC)c1OC [Compound K1386]	> 500	3.89 ± 1.08	CNS± (BBB permeation uncertain, Pe × 10^−6 cm/s from 4.0 to 2.0)	3.93 ± 1	26.7 ± 1	934 ± 45	–
COc1cc2oc(-c3ccc(NCCNc4c5c(nc6cc(Cl)ccc46)CCCC5)cc3)cc(=O)c2c(OC)c1OC [Compound K1383]	> 500	3.4 ± 1.05	CNS± (BBB permeation uncertain, Pe × 10^−6 cm/s from 4.0 to 2.0)	2.88 ± 0.1	1.63 ± 0.13	1210 ± 70	type of inhibition (hAChE; nonlinear regression analysis, p < 0.05): mixed, non-competitive; Ki (hAChE; substrate ATCh 0.156–1.250 mM, Ki = Ki′): 2.75 ± 0.32 nM
COc1cc2oc(-c3ccc(NCCCCCCCCNc4c5c(nc6cc(Cl)ccc46)CCCC5)cc3)cc(=O)c2c(OC)c1OC [Compound K1389]	> 500	> 16	CNS+ (high BBB permeation predicted, Pe × 10^−6 cm/s > 4.0)	8.1 ± 3.1	22.3 ± 0.7	2210 ± 130	cytotoxicity compared to reference 6-Cl-THA (HepG2 cells): slightly suppressed cytotoxicity; BBB crossing prediction [1]: potential to cross the BBB
COc1cc2oc(-c3ccc(NCCCNc4c5c(nc6cc(Cl)ccc46)CCCC5)cc3)cc(=O)c2c(OC)c1OC [Compound K1384]	> 500	5.77 ± 1.68	CNS+ (high BBB permeation predicted, Pe × 10^−6 cm/s > 4.0)	5.01 ± 2.2	1.9 ± 0.1	174 ± 7	BBB crossing prediction [1]: potential to cross the BBB
CCN(CC)c1cccc(-c2cc(=O)c3c(O)c(OC)c(OC)cc3o2)c1 [Compound 1]	–	–	–	–	–	–	IC50 ([8]; AChE isolated from rat cortex homogenate, read-out: AChE IC50 ± SEM): 570 ± 20 nM; SI (BChE IC50/AChE IC50) ([8]; rat AChE vs rat BChE): 39.7; IC50 (BChE from rat serum): 22.6 ± 0.22 µM; ORAC-FL antioxidant power [6]: 1.3 ± 0.02 ^a µM of Trolox/µM of tested compound
